Experimental findings from PMC11171218, “N-Benzylated 5-Hydroxybenzothiophene-2-carboxamides as Multi-Targeted Clk/Dyrk Inhibitors and Potential Anticancer Agents” (Cancers, 2024) are described below.

In experiment [1] the test system is Hela cells. Put plainly: CCK-8 cell viability, Hela. It counts as cell-based. Particulars: Homo sapiens, 72 h; for inhibition at 20 µM: CCK-8, mean ± S.E.M. (n = 3), read-out: Hela % Inh. at μM; for IC50: CCK-8, 50% inhibition of viability. The protocol:
(§1) All cells were purchased from Bioresource Collection and Research Center (Hsinchu, Taiwan) and cultured in corresponding media supplemented with 10% fetal bovine serum, 1 × Antibiotic-Antimycotic at 37 °C in a humidified incubator with 5% CO2. […] T24 cells were cultured in McCoy’s 5a media. IEC-6 cells were cultured in DMEM media supplemented with 5% fetal bovine serum, 1 × Antibiotic–Antimycotic, and 0.1 unit/mL insulin.
(§2) Cells were incubated with the Cell Counting Kit-8 (CCK-8) reagent (TargetMol, Boston, MA, USA) at 37 °C for 2 h. The cell viability was determined by spectrophotometer at 450 nm.

Experiment [2] concerns the target T1, GSG2 (Haspin) (Homo sapiens, UniProt Q8TF76).
T1 construct: purchased Thermo Fisher Scientific, Madison, WI, USA (assay run there)
T1 sequence (Q8TF76 1-798): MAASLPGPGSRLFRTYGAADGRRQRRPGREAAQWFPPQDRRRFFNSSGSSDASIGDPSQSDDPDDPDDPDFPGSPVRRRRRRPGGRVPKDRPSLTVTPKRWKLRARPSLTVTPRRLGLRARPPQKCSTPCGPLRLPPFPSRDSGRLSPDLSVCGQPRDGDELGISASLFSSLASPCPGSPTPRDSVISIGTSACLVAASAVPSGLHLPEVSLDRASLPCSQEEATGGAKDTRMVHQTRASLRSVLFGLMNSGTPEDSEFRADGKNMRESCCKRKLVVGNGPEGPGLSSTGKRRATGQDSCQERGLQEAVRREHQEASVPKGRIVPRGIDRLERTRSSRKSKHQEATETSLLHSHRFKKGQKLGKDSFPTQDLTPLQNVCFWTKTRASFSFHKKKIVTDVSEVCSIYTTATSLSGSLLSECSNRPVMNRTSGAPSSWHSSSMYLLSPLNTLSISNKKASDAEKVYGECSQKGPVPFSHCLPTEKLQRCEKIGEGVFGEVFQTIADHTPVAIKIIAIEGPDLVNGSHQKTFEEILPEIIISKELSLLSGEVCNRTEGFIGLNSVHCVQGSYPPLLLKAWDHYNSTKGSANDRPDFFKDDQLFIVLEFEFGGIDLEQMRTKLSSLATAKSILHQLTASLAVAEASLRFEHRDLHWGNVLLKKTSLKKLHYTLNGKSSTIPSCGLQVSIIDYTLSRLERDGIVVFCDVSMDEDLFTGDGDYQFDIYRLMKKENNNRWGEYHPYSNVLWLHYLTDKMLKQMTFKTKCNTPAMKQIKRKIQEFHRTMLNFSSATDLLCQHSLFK
Put plainly: Adapta universal kinase assay, Haspin. It counts as biochemical. The conditions noted are these: for inhibition at 1 µM: 1 µM compound, screening by Thermo Fisher Scientific; for IC50: ATP concentration equivalent to Km (25 μM ATP). The protocol:
3.2 The Adapta universal kinase assay for screening and IC 50 determination against haspin.
The haspin kinase assay was done at Thermo Fisher Scientific, Madison, WI, USA using a fluorescence-based immunoassay known as ‘The Adapta Universal Kinase Assay’, which detects the ADP produced by kinases utilizing the TR-FRET technology. The final 10 μL kinase reaction consists of 0.25 - 1 ng GSG2 (Haspin) and 100 μM of the substrate (Histone H3 (1-20) peptide) in […]
μM ATP. After an incubation time of 1 h at RT, 5 μL of a detection mix was added.
To determine the half maximal inhibitory concentration (IC 50), the assays were performed in duplicate in the absence or presence of increasing doses of the tested compounds.

Experiment [3] has as its target Clk1 (Homo sapiens, UniProt P49759). Put plainly: Z'-LYTE kinase inhibition assay, Clk1. The conditions noted are these: for IC50: ATP conc. equivalent to Km; for inhibition at 1 µM: read-out: Clk1 % Inh. At 1 µM. It counts as biochemical. From the text:
(§3) 3. Experimental procedure for protein kinases and inhibition assays.
(§4) 3.1 The Z ́ -LYTE biochemical assay for screening and IC 50 determination for Clk1, Dyrk1A, Dyrk1B, Clk2 and Clk3 kinases.
(§5) The assay employs a fluorescence-based, coupled-enzyme format and is based on the differential sensitivity of phosphorylated and non-phosphorylated peptides to proteolytic cleavage. The peptide substrate is labeled with two fluorophores-one at each end-that make up a FRET pair. In the primary reaction, the kinase transfers the gamma-phosphate of ATP to a single tyrosine, serine, or threonine residue in a synthetic FRET-peptide. In the secondary reaction, a site-specific protease recognizes and cleaves non-phosphorylated FRET-peptides. Phosphorylation of FRET-peptides suppresses cleavage by the Development Reagent. Cleavage disrupts FRET between the donor (i.e., coumarin) and acceptor (i.e., fluorescein) fluorophores on the FRET-peptide, whereas uncleaved, phosphorylated FRET-peptides maintain FRET. A ratiometric method, which calculates the ratio (the Emission Ratio) of donor emission to acceptor emission after excitation of the donor fluorophore at 400 nm, is used to quantitate reaction progress. Both cleaved and uncleaved FRET-peptides contribute to the fluorescence signals and therefore to the Emission Ratio. The extent of phosphorylation of the FRET-peptide can be calculated from the Emission Ratio. The Emission Ratio will remain low if the FRET-peptide is phosphorylated (i.e., no kinase inhibition) and will be high if the FRET-peptide is non-phosphorylated (i.e., kinase inhibition).
(§6) The IC 50 values were determined for compounds displaying significant % inhibition in the screening step. IC 50 determination was done through testing at a range of concentrations with two […]
two independent experiments.
3.1.1 Clk1 kinase assay specific conditions:
The 2x Clk1 / Ser/Thr 09 mixture is prepared in 50 mM HEPES pH 7.5, 0.01% BRIJ-35, 10 mM MgCl 2, 1 mM EGTA. The final 10 μL kinase reaction consists of 30 - 120 ng Clk1 and 2 μM Ser/Thr 09 in 50 mM HEPES pH 7.5, 0.01% BRIJ-35, 10 mM MgCl 2, 1 mM EGTA. After the 1 h

Experiment [4] concerns U87 cells. In words: CCK-8 cell viability, U87. It counts as cell-based. Particulars: Homo sapiens, U-87 MG, 72 h; for inhibition at 20 µM: CCK-8, mean ± S.E.M. (n = 3), read-out: U87 % Inh. at μM. How it is done:
as §1, §2

Experiment [5] has as its target Clk2 (Homo sapiens, UniProt P49760). Put plainly: Z'-LYTE kinase inhibition assay, Clk2. It counts as biochemical. Particulars: for inhibition at 1 µM: 1 µM compound, screening by Thermo Fisher Scientific; for IC50: ATP concentration equivalent to Km.
Text: as §3, §4, §5, §6
two independent experiments. […]
Development Reagent A is added.
3.1.4 Clk2 kinase assay specific conditions:
The 2X Clk2 / Ser/Thr 06 mixture is prepared in 50 mM HEPES pH 7.5, 0.01% BRIJ-35, 10 mM […]
Ser/Thr 06 in 50 mM HEPES pH 7.5, 0.01% BRIJ-35, 10 mM MgCl2, 1 mM EGTA. […]
MgCl2, 1 mM EGTA, 0.02% NaN3. […]

Molecules are shown by their SMILES.

Clk1, sequence (P49759 whole entry): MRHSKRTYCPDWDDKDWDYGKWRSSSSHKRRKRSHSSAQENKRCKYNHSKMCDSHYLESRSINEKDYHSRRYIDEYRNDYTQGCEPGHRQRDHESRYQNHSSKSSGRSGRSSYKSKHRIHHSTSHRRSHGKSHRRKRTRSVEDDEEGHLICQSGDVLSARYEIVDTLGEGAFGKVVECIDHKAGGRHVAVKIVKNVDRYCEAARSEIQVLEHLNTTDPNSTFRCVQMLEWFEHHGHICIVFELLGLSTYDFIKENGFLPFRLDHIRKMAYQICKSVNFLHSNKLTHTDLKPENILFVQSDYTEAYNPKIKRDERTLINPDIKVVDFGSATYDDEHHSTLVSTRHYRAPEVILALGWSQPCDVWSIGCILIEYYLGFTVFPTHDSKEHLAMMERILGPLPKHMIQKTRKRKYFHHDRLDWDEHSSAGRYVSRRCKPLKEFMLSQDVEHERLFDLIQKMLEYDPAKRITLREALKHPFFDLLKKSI
Clk2, sequence (P49760 whole entry): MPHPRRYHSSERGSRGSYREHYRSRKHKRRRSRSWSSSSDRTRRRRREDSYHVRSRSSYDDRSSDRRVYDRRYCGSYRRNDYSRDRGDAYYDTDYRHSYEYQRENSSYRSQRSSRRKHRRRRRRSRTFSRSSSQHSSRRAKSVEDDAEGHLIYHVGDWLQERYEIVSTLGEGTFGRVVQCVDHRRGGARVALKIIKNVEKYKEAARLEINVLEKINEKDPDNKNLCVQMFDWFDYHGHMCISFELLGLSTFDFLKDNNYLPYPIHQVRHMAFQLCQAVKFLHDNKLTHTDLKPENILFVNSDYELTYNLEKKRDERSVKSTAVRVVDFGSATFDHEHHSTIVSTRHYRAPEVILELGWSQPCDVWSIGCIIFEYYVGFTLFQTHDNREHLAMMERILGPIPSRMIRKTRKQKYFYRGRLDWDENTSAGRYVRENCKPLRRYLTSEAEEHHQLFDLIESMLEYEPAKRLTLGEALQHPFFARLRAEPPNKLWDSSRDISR

Broadly, the IC50 is the concentration that inhibits the measured activity by half. Regarding `COc1cccc(CNC(=O)c2cc3cc(O)ccc3s2)c1` [Compound 12, 5-Hydroxy-N-(3-methoxybenzyl)benzo[b]thiophene-2-carboxamide], the inhibition at 20 µM in experiment [1] was determined as 50.7 ± 2.41%; in experiment [4], 60.1 ± 6.16%. The inhibition at 1 µM worked out at 85% in experiment [2], 86% in experiment [3] and 62% in experiment [5]. The IC50 in experiment [2] was 167 nM; in experiment [3], 153 nM; in experiment [4] (CCK-8, 50% inhibition of viability), 16500 nM; in experiment [5], 617 nM.

For `COc1ccccc1CNC(=O)c1cc2cc(O)ccc2s1` [Compound 11, 5-Hydroxy-N-(2-methoxybenzyl)benzo[b]thiophene-2-carboxamide], the inhibition at 20 µM amounted to 62.1 ± 1.97% in experiment [1] and 18.1 ± 0.81% in experiment [4]. Moreover, the 50% inhibitory concentration (IC50) in experiment [1] was 19300 nM; in experiment [3], 725 nM. For the same molecule, the inhibition at 1 µM was determined as 46% in experiment [2], 60% in experiment [3] and 50% in experiment [5].

Turning to `O=C(NCc1cc(F)cc(F)c1)c1cc2cc(O)ccc2s1` [Compound 17, N-(3,5-Difluorobenzyl)-5-hydroxybenzo[b]thiophene-2-carboxamide], the inhibition at 20 µM in experiment [1] worked out at 60.9 ± 2.82%; in experiment [4], 47.3 ± 5.65%. The half-maximal inhibitory concentration (IC50) in experiment [1] was 18100 nM; in experiment [2] it was 256 nM; in experiment [3] it was 168 nM; in experiment [5], 708 nM. For the same molecule, the inhibition at 1 µM in experiment [2] turned out to be 80%; in experiment [3], 85%; in experiment [5] it was 62%. Moreover, the “Improvement in inhibitory activity against Clk1 compared to compound 1” value in experiment [3] (ratio of IC50 vs compound 1) is 4 fold.

As for `O=C(NCc1cccc(F)c1)c1cc2cc(O)ccc2s1` [Compound 6, N-(3-Fluorobenzyl)-5-hydroxybenzo[b]thiophene-2-carboxamide], the inhibition at 20 µM in experiment [1] came out at 53.3 ± 2.22%; in experiment [4] it was 21 ± 5.07%. The inhibition at 1 µM worked out at 83% in experiment [2], 72% in experiment [3] and 38% in experiment [5]. The IC50 was 207 nM in experiment [2] and 410 nM in experiment [3].

For `O=C(NCc1cccc(Cl)c1)c1cc2cc(O)ccc2s1` [Compound 3, N-(3-Chlorobenzyl)-5-hydroxybenzo[b]thiophene-2-carboxamide], the inhibition at 20 µM stood at 50.5 ± 3.93% in experiment [1] and 32.2 ± 4.76% in experiment [4]. The inhibition at 1 µM in experiment [2] amounted to 54%; in experiment [3], 79%; in experiment [5] it was 46%. Moreover, the IC50 in experiment [3] stood at 257 nM.
